Source: US10350188B2, “Use of Neu1 sialidase inhibitors in the treatment of cancer” (priority 2011, dated 2019)
Where “and” joins values, the source holds several entries; their conditions need not be identical. Equal values may be shown once.

Assays:
[1] = test system: PANC-1 cells; assay: Cell viability of PANC-1 pancreatic cancer cells in culture (MTT or WST-1, 72 hrs); type: cell-based, human
[2] = test system: PANC-1 human pancreatic cancer cells implanted in RAG1/Cγ double mutant NOD xenograft mice; assay: PANC-1 pancreatic cancer xenograft in RAG1/Cγ double mutant NOD mice; conditions: for Liver metastases % Inhibition: vs untreated day 79
Excerpt: An immunodeficient mouse model with a double mutation in the combining recombinase activating gene-1 or -2 (RAG1 or RAG2) and common cytokine receptor γ chain (cγ) were used as xenograft mice. […] Mice deficient in both RAG2 and cγ (RAG2−/−/cγ−/−) were generated by inter-crossing and were maintained in SPF isolators in the Animal Care Facility, Queen's University, Kingston, Ontario K7L3N6, Canada. A colony was established in the animal facility. Mice deficient in both RAG1 and cγ (RAG1^−/−×cγ^−/−) on a non-obese diabetic (NOD) genetic background were obtained from the Jackson Laboratory (Bar Harbor, Me.) and a colony was established in the animal facility. All mice were kept under sterile conditions in micro-isolators or air-filtered cages, and were provided with autoclaved food and water. […] They were used between 6 and 8 weeks of age.
Puromycin-resistance eGFP transduced MiaPaCa-2 or PANC-1 cell clones were grown in 75 cm^2 cell culture flask at 80% confluence. The cells were resuspended into solution using TrypLE Express (Gibco) and washed with sterile saline. The cell suspension was centrifuged for 3 min at 900 rpm, and the cell pellet resuspended in sterile saline at a concentration of 5-10×10^6 cells/mL for 1-2×10^6 cells implantation into the right back flank of the mouse. Tumour measurements were taken twice a week. Tumour volumes were determined by (width square/2)×length.
The RAG1/Cγ double mutant xenograft mouse model was implanted with 2×10^6 PANC-1 cells in 0.2 mL in the right back flank.

[3] = test system: MiaPaCa-2 cells; assay: Cell viability of MiaPaCa-2 pancreatic cancer cells in culture (MTT or WST-1, 72 hrs); type: cell-based, human
[4] = test system: BxPC-3 cells; assay: Cell viability of BxPC-3 pancreatic cancer cells in culture (MTT or WST-1, 72 hrs); type: cell-based, human; conditions: oseltamivir phosphate alone; BxPC-3 (chemo-resistant); MTT or WST-1, 72 hrs
[5] = test system: Capan-1 cells; assay: Cell viability of Capan-1 pancreatic metastatic cancer cells in culture (MTT or WST-1, 72 hrs); type: cell-based, human; conditions: oseltamivir phosphate alone; Capan-1 (chemo-sensitive); MTT or WST-1, 72 hrs
Procedure: CAPAN-1 cells (ATCC® Number: HTB-79™) are human pancreatic cancer cell line with epithelial morphology expressing the 17 beta-estradiol (E2)-binding estrogen receptor and derived from metastatic liver with adenocarcinoma.
(§1) All cells were grown at 37° C. in 5% CO2 in culture media containing Dulbecco's Modified Eagle Medium (DMEM) (Gibco, Rockville, Md.) supplemented with 10% fetal calf serum (FCS) (HyClone, Logan, Utah, USA).
(§2) MTT is a colorimetric assay for measuring the activity of enzymes that reduce MTT or closely related dyes (XTT, MTS, WSTs) to formazan dye, giving a purple color. A main application allows the assessment of the viability (cell counting) and the proliferation of cells (cell culture assays). It can also be used to determine cytotoxicity of potential medicinal agents and toxic materials, since those agents would stimulate or inhibit cell viability and growth. MTT (3-(4,5-Dimethylthiazol-2-yl)-2,5-diphenyltetrazolium bromide, a yellow tetrazole), is reduced to purple formazan in living cells. A solubilization solution (usually either dimethyl sulfoxide, an acidified ethanol solution, or a solution of the detergent sodium dodecyl sulphate in diluted hydrochloric acid) is added to dissolve the insoluble purple formazan product into a coloured solution. The absorbance of this coloured solution can be quantified by measuring at a certain wavelength (usually between 500 and 600 nm) by a spectrophotometer. The absorption maximum is dependent on the solvent employed.
(§3) WST-1 (Roche Applied Sciences, Montreal) is a ready-to-use substrate which measures the metabolic activity of viable cells. The WST-1 assay is nonradioactive and can be performed entirely in a microplate. It is suitable for measuring cell proliferation, cell viability or cytotoxicity. The assay is based on the reduction of WST-1 by viable cells. The reaction produces a soluble formazan salt. The procedure involves: Culturing the cells in a 96-well microplate, then incubating them with WST-1 for approx. 0.5-4 h. During this incubation period, viable cells convert WST-1 to a water-soluble formazan dye. Quantitating the formazan dye in the microplate is done with an ELISA plate reader. The absorbance directly correlates with the cell number.

[6] = test system: MiaPaCa-2-eGFP pancreatic cancer cells implanted in RAG2/Cγ double mutant Balbc xenograft mice; assay: MiaPaCa-2-eGFP pancreatic cancer xenograft in RAG2/Cγ double mutant Balbc mice; type: in vivo, mouse
Procedure: Tumour measurements were taken twice a week.
MiaPaCa-2-eGFP pancreatic cancer cells at 1.5×10^6 in 0.2 mL were implanted subcutaneously in the right back flank of these mice. Each mouse in the study was identified by an ear punch number. Twice a week each mouse following implantation of the cancer cells was monitored for tumour volume growth (length and width) at the site of implantation, body weights, and body condition scoring. Scoring the body condition of rodents is a non-invasive method for assessing health and establishing endpoints for adults where body weight is not a viable monitoring tool, such as with tumour models. Body condition scores (BC) range from 1(emaciation) to 5 (obesity). An anticipated BCS of 2—under conditioned—or lower, requires justification in the protocol. Scores are determined by frequent visual and hands-on examination of each animal. The hands-on evaluation is done by gently holding the mouse by the base of the tail and passing a finger over the sacroiliac bones. The findings are matched to the descriptions and diagrams of BC ranges to determine a score. Scores are documented for each animal.

[7] = test system: MCF-7 cells; assay: Cell viability of MCF-7 breast cancer cells in culture (MTT or WST-1, 72 hrs); type: cell-based, human; conditions: oseltamivir phosphate alone; MCF-7 (chemo-sensitive); MTT or WST-1, 72 hrs
Procedure: (§4) MDA MB-231cells (ATCC® Number: HTB-26™) are human mammary gland breast adenocarcinoma derived from metastatic pleural effusion with epithelial morphology. MCF-7 (ATCC® Number: HTB-22™) are human mammary gland breast adenocarcinoma derived from metastatic pleural effusion with epithelial morphology.
as §1, §2, §3

[8] = test system: A 2780 cells; assay: Cell viability of A 2780 ovarian cancer cells in culture (MTT or WST-1, 72 hrs); type: cell-based, human; conditions: oseltamivir phosphate alone; A 2780 (chemo-sensitive); MTT or WST-1, 72 hrs
Procedure: (§5) A-2780 cells are human ovarian cancer cell line which was established from tumor tissue from an untreated patient with adenocarcinoma. Cells grow as a monolayer and in suspension in spinner cultures.
as §1, §2, §3

[9] = test system: A 2780cis cells; assay: Cell viability of A 2780cis ovarian cancer cells in culture (MTT or WST-1, 72 hrs); type: cell-based, human; conditions: oseltamivir phosphate alone; A 2780cis (chemo-resistant); MTT or WST-1, 72 hrs
Procedure: as §5, §1, §2, §3

[10] = test system: MDA MB-231 cells; assay: Cell viability of MDA MB-231 breast cancer cells in culture (MTT or WST-1, 72 hrs); type: cell-based, human; conditions: oseltamivir phosphate alone; MDA MB-231 (chemo-resistant); MTT or WST-1, 72 hrs
Procedure: as §4, §1, §2, §3

[11] = oseltamivir phosphate analogues (TD), WST-1, 72 hrs
[12] = day 84, oseltamivir phosphate 2 mg/kg daily, alone or with Abraxane 0.5 / Gemcitabine 30 mg/kg
[13] = day 84, oseltamivir phosphate 5 mg/kg daily, alone or with Abraxane 0.5 / Gemcitabine 30 mg/kg
[14] = day 93, oseltamivir phosphate 2 mg/kg daily, alone or with Gemcitabine 30 mg/kg
[15] = day 93, oseltamivir phosphate 5 mg/kg daily, alone or with Gemcitabine 30 mg/kg
[16] = oseltamivir phosphate 2 mg/kg, alone day 90, with abraxane 0.5 day 78, with gemcitabine 30 day 110

SMILES: CCOC(=O)C1=C[C@@H](OC(CC)CC)[C@H](NC(C)=O)[C@@H](N)C1 [oseltamivir phosphate]
- LD50 ([1]; oseltamivir phosphate alone, PANC-1 (chemo-resistant), MTT or WST-1, 72 hrs): 1462 µM
- LD50 PANC-1 [1, 11]: 1462 µM
- % Inhibition To untreated ([2]; day 79, oseltamivir phosphate 2 mg/kg daily, alone or with Abraxane 0.5 / Gemcitabine 30 mg/kg): 35% (n.s.)
- Tumour volume ([2]; day 79, oseltamivir phosphate 2 mg/kg i.p. daily, alone or with Abraxane 0.5 / Gemcitabine 30 mg/kg): 901 ± 104 (5) mm^3
- % Inhibition To untreated ([2]; day 79, oseltamivir phosphate 5 mg/kg daily, alone or with Abraxane 0.5 / Gemcitabine 30 mg/kg): 31% (n.s.)
- Tumour volume ([2]; day 79, oseltamivir phosphate 5 mg/kg i.p. daily, alone or with Abraxane 0.5 / Gemcitabine 30 mg/kg): 956 ± 345 (4) mm^3
- % Inhibition To untreated [2, 12]: 22% (n.s.)
- Tumour volume [2, 12]: 1079 ± 91 (5) mm^3
- % Inhibition To untreated [2, 13]: 5% (n.s.)
- Tumour volume [2, 13]: 1321 ± 503 (4) mm^3
- % Inhibition To untreated [2, 14]: 0% (n.s.)
- Tumour volume [2, 14]: 1554 ± 469 (2) mm^3
- % Inhibition To untreated [2, 15]: 0% (n.s.)
- Tumour volume [2, 15]: 1406 ± 471 (2) mm^3
- Liver metastases (ave number of nodules) ([2]; oseltamivir phosphate 2 mg/kg, alone day 90, with abraxane 0.5 mg/kg day 78, with gemcitabine 30 mg/kg day 110): 26
- Metastases (size, mm) [2, 16]: 0.2-1.3 mm
- Liver metastases % Inhibition [2, 16]: 38%
- Liver metastases (ave number of nodules) ([2]; oseltamivir phosphate 5 mg/kg, alone day 90, with abraxane 0.5 mg/kg day 90, with gemcitabine 30 mg/kg day 109): 21
- Liver metastases % Inhibition ([2]; oseltamivir phosphate 5 mg/kg, alone day 90, with abraxane 0.5 day 90, with gemcitabine 30 day 109): 50%
- Survival of tumour bearing mice ([2]; oseltamivir phosphate 2 and 5 mg/kg, Abraxane 0.5 mg/kg, gemcitabine 30 mg/kg, alone or combined, untreated control day 80): 91 days and 94 days
- LD50 ([3]; oseltamivir phosphate alone, MiaPaCa (chemo-resistant), MTT or WST-1, 72 hrs): 850 µM
- LD50 MiaPaCa-2 [3, 11]: 850 µM
- LD50 [4]: 975 µM
- LD50 [5]: 2 µM
- % Inhibition (tumour volume) ([6]; Table 8 study, day 46, 50 mg/kg, vs untreated): 60.4%
- % Inhibition (tumour volume) ([6]; Table 8 study, day 46, 100 mg/kg, vs untreated): 61.0%
- % Inhibition (tumour volume) ([6]; Table 8 study, day 46, 200 mg/kg, vs untreated): 58.5%
- Tumour volume ([6]; Table 8 study, day 46 post implantation, oseltamivir phosphate 50 mg/kg): 368 ± 38 (4) mm^3
- Tumour volume ([6]; Table 8 study, day 46 post implantation, oseltamivir phosphate 100 mg/kg): 362 ± 62 (4) mm^3
- Tumour volume ([6]; Table 8 study, day 46 post implantation, oseltamivir phosphate 200 mg/kg): 386 ± 88 (4) mm^3
- % Inhibition (tumour volume) ([6]; day 48, 2 mg/kg i.p., vs untreated): 61.7%
- % Inhibition (tumour volume) ([6]; day 48, 10 mg/kg i.p., vs untreated): 71.5%
- % Inhibition (tumour volume) ([6]; day 48, 50 mg/kg i.p., vs untreated): 60.3%
- % Inhibition (tumour volume) ([6]; day 48, 100 mg/kg i.p., vs untreated): 58.9%
- Tumour volume ([6]; day 48 post implantation, oseltamivir phosphate 2 mg/kg i.p.): 370 ± 88 (5) mm^3
- Tumour volume ([6]; day 48 post implantation, oseltamivir phosphate 10 mg/kg i.p.): 275 ± 71 (6) mm^3
- Tumour volume ([6]; day 48 post implantation, oseltamivir phosphate 50 mg/kg i.p.): 383 ± 71 (4) mm^3
- Tumour volume ([6]; day 48 post implantation, oseltamivir phosphate 100 mg/kg i.p.): 397 ± 57 (5) mm^3
- % Inhibition (tumour volume) ([6]; day 61, 2 mg/kg i.p.): 34.1%
- % Inhibition (tumour volume) ([6]; day 61, 10 mg/kg i.p.): 26.3%
- % Inhibition (tumour volume) ([6]; day 61, 50 mg/kg i.p.): 32.4%
- % Inhibition (tumour volume) ([6]; day 61, 100 mg/kg i.p.): 27.4%
- Tumour volume ([6]; day 61 post implantation, oseltamivir phosphate 2 mg/kg i.p.): 636 ± 35 (2) mm^3
- Tumour volume ([6]; day 61 post implantation, oseltamivir phosphate 10 mg/kg i.p.): 711 ± 159 (5) mm^3
- Tumour volume ([6]; day 61 post implantation, oseltamivir phosphate 50 mg/kg i.p.): 652 ± 173 (3) mm^3
- Tumour volume ([6]; day 61 post implantation, oseltamivir phosphate 100 mg/kg i.p.): 701 ± 201 (3) mm^3
- Reduction of tumour growth in time-to-progression ([6]; oseltamivir phosphate 2, 10, 50 and 100 mg/kg i.p. from day 40 post implantation, vs untreated): over 50%
- LD50 [7]: >3 µM
- LD50 [8]: 1.5 µM
- LD50 [9]: 1.0 µM
- LD50 [10]: 0.6 µM
